According to patent US20250230193A1, “CYCLIC COMPOUND HAVING SELECTIVE KRAS INHIBITORY EFFECT ON HRAS AND NRAS” (CHUGAI SEIYAKU KABUSHIKI KAISHA, priority 2022, published 2025):
*1 amine or outer side, *2 acyl side, *3 side chain or, on linkers, in order; H or OH if unused. Where a SMILES comes first, the peptide text is derived from it. Bridges are numbered along the chain shown (N, C = ends). [ ]: non-standard residue; d: D form. The star is where a group is joined. hPhe(3-Cl-4-CF3) = N[C@@H](CCc1ccc(C(F)(F)F)c(Cl)c1)C(=O)O; X10 = CCCN([C@@H](Cc1ccc(F)cc1)C(=O)[*:2])[*:1]; NMeGly(cPent) = CN[C@H](C(=O)O)C1CCCC1; NMeD = CN[C@@H](CC(=O)O)C(=O)O; NMeL = CN[C@@H](CC(C)C)C(=O)O; Morpholide = C1CN(*)CCO1; Ac5c = NC1(C(=O)O)CCCC1; Sar = CNCC(=O)O

How the values were obtained:
[1] = target: GDP-bound NRAS wild-type protein (Homo sapiens, UniProt P01111); experiment: Binding to NRAS by surface plasmon resonance (SPR), Single Cycle Kinetics; settings: for NRAS/KRAS (ratio of KD value with respect to NRAS to KD value with respect to KRAS): GDP-bound NRAS wild-type vs GDP-bound KRAS wild-type
Chain of GDP-bound NRAS wild-type protein (P01111 whole entry): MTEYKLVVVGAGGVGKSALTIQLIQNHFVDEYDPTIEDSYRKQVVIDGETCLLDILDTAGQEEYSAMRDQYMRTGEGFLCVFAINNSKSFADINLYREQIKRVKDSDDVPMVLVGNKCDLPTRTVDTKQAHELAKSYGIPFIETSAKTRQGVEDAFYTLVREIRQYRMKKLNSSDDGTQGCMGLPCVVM

[2] = target: GDP-bound HRAS wild-type protein (Homo sapiens, UniProt P01112); experiment: Binding to HRAS by surface plasmon resonance (SPR), Single Cycle Kinetics; settings: for HRAS/KRAS (ratio of KD value with respect to HRAS to KD value with respect to KRAS): GDP-bound HRAS wild-type vs GDP-bound KRAS wild-type
Chain of GDP-bound HRAS wild-type protein (P01112 whole entry): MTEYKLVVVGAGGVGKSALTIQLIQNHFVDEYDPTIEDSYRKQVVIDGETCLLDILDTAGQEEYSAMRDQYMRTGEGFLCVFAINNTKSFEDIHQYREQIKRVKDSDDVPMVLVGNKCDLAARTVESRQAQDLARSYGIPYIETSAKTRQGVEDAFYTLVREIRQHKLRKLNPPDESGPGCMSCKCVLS

[3] = KD ratio NRAS/KRAS, class symbols
[4] = KD ratio HRAS/KRAS, class symbols

## CC[C@H](C)[C@@H]1NC(=O)[C@H](COC)N(C)C(=O)C[C@@H](C(=O)N2CCCCC2)N(C)C(=O)[C@H](C2CCCC2)N(C)C(=O)C2(CC(C)(C)C2)NC(=O)[C@@H]2C[C@@H](OC3CCCC3)CN2C(=O)[C@H](CCc2cc(F)c(C(F)(F)F)c(F)c2)NC(=O)CN(C)C(=O)[C@H](Cc2ccc(C(F)(F)F)cc2)N2CC/C=C\C[C@@H](C2=O)N(C)C(=O)CN(C)C1=O [PP2665]
[1]; [3]
  NRAS/KRAS (ratio of KD value with respect to GDP-bound NRAS wild-type protein to KD value with respect to KRAS): A (a compound having 10 or more and less than 20 is denoted as A)
[2]; [4]
  HRAS/KRAS (ratio of KD value with respect to GDP-bound HRAS wild-type protein to KD value with respect to KRAS): A (a compound having 10 or more and less than 20 is denoted as A)

## CCO[C@@H]1C[C@H]2C(=O)NC3(CCC3)C(=O)N(C)[C@@H](C3CCCC3)C(=O)N(C)[C@H](C(=O)N(C)C)CC(=O)N(C)[C@@H](CC)C(=O)N[C@@H]([C@@H](C)CC)C(=O)N(C)CC(=O)N(C)[C@H]3CCCCCN(C3=O)[C@@H](Cc3ccc(F)cc3)C(=O)N(C)CC(=O)N[C@@H](CCc3cc(F)c(C(F)(F)F)c(F)c3)C(=O)N2C1 [PP1190]
[1]; KD ratio, SPR
  NRAS/KRAS (ratio of KD value with respect to NRAS to KD value with respect to KRAS): B (a compound having 3 or more and less than 10 is denoted as B)
[2]; KD ratio, SPR
  HRAS/KRAS (ratio of KD value with respect to HRAS to KD value with respect to KRAS): B (a compound having 3 or more and less than 10 is denoted as B)

## CCO[C@@H]1C[C@H]2C(=O)NC3(CC(C)(C)C3)C(=O)N(C)[C@@H](C(CC)CC)C(=O)N(C)[C@H](C(=O)N(C)C)CC(=O)N(C)[C@@H](C)C(=O)N[C@@H]([C@@H](C)CC)C(=O)N(C)CC(=O)N(C)[C@H]3C/C=C\CCN(C3=O)[C@@H](Cc3ccc(C)cc3)C(=O)N(C)CC(=O)N[C@@H](CCc3ccc(C(F)(F)F)c(Cl)c3)C(=O)N2C1 [PP2150]
[1]; SPR
  NRAS/KRAS (ratio of KD value with respect to NRAS to KD value with respect to KRAS): AA (a compound having 20 or more is denoted as AA)
[2]; SPR
  HRAS/KRAS (ratio of KD value with respect to HRAS to KD value with respect to KRAS): A (a compound having 10 or more and less than 20 is denoted as A)

## CCCOC[C@H]1C(=O)N[C@@H]([C@@H](C)CC)C(=O)N(C)CC(=O)N(C)[C@H]2C/C=C\CCN(C2=O)[C@@H](Cc2ccc(C(F)(F)F)cc2)C(=O)N(C)CC(=O)N[C@@H](CCc2ccc(Cl)c(Cl)c2)C(=O)N2C[C@H](OCC)C[C@H]2C(=O)NC2(CCC2)C(=O)N(C)[C@@H](C2CCCC2)C(=O)N(C)[C@H](C(=O)N(C)CCC)CC(=O)N1C [PP2830]
[1]; [3]
  NRAS/KRAS (ratio of KD value with respect to GDP-bound NRAS wild-type protein to KD value with respect to KRAS): A (a compound having 10 or more and less than 20 is denoted as A)
[2]; [4]
  HRAS/KRAS (ratio of KD value with respect to GDP-bound HRAS wild-type protein to KD value with respect to KRAS): A (a compound having 10 or more and less than 20 is denoted as A)

## CCO[C@@H]1C[C@H]2C(=O)NC3(CCC3)C(=O)N(C)[C@@H](C3CCCC3)C(=O)N(C)[C@H](C(=O)N(C)C)CC(=O)N(C)[C@@H](Cc3ccccc3)C(=O)N[C@@H]([C@@H](C)CC)C(=O)N(C)CC(=O)N(C)[C@H]3C/C=C\CCN(C3=O)[C@@H](Cc3ccc(C(F)(F)F)cc3)C(=O)N(C)CC(=O)N[C@@H](CCc3cc(F)c(C(F)(F)F)c(F)c3)C(=O)N2C1 [PP1116]
[1]; KD ratio, SPR
  NRAS/KRAS (ratio of KD value with respect to NRAS to KD value with respect to KRAS): A (a compound having 10 or more and less than 20 is denoted as A)
[2]; KD ratio, SPR
  HRAS/KRAS (ratio of KD value with respect to HRAS to KD value with respect to KRAS): A (a compound having 10 or more and less than 20 is denoted as A)

## CCCN1C(=O)CN(C)C(=O)CN(C)C(=O)[C@H]([C@@H](C)CC)NC(=O)[C@H](CC(C)C)N(C)C(=O)C[C@@H](C(=O)N2CCOCC2)N(C)C(=O)[C@H](C2CCCC2)N(C)C(=O)C2(CCCC2)NC(=O)[C@@H]2CCCN2C(=O)[C@H](CCc2ccc(C(F)(F)F)c(Cl)c2)NC(=O)CN(C)C(=O)[C@@H]1Cc1ccc(F)cc1 [PP0214] ([NMeL]I[Sar][Sar][X10][Sar][hPhe(3-Cl-4-CF3)]P[Ac5c][NMeGly(cPent)][NMeD]-Morpholide; lactam N-11)
[1]; KD ratio NRAS/KRAS, SPR
  NRAS/KRAS (ratio of KD for GDP-bound NRAS wild-type to KD for KRAS): B (a compound having 3 or more and less than 10 is denoted as B)
[2]; KD ratio HRAS/KRAS, SPR
  HRAS/KRAS (ratio of KD for GDP-bound HRAS wild-type to KD for KRAS): C (A compound having a KD ratio of 0.1 or more and less than 3 is denoted as C)

## CCO[C@@H]1C[C@H]2C(=O)NC3(CCC3)C(=O)N(C)[C@@H](C3CCCC3)C(=O)N(C)[C@H](C(=O)N(C)C)CC(=O)N(C)[C@@H](C)C(=O)N[C@@H]([C@H](C)CC)C(=O)N(C)CC(=O)N(C)[C@H]3CCCCCN(C3=O)[C@@H](Cc3ccc(C(F)(F)F)cc3)C(=O)N(C)CC(=O)N[C@@H](CCc3cc(F)c(C(F)(F)F)c(F)c3)C(=O)N2C1 [PP0729]
[1]; KD ratio NRAS/KRAS, SPR
  NRAS/KRAS (ratio of KD value with respect to GDP-bound NRAS wild-type protein to KD value with respect to KRAS): B (a compound having 3 or more and less than 10 is denoted as B)
[2]; KD ratio HRAS/KRAS, SPR
  HRAS/KRAS (ratio of KD value with respect to GDP-bound HRAS wild-type protein to KD value with respect to KRAS): B (a compound having 3 or more and less than 10 is denoted as B)
